Assay results from patent US8163779B2, “Glucokinase activators” (Takeda San Diego, Inc., priority 2006, dated 2012).

target: T1, glucokinase (GK) (Homo sapiens, UniProt P35557); assay: enzymatic glucokinase activity assay (ATP consumption, KinaseGlo luminescence); assay type: biochemical; settings: recombinant GK residues 12-465; 5 μM ATP, 5 mM Glucose; Kact = concentration that displays 50% of the maximal increase in GK activity; read-out: pKact
T1 construct: I.D. No. 1 corresponds to residues 12-465 of glucokinase; made in house; host or cells: E. coli DH10b-T1r
T1 sequence (P35557 with tags, fused parts or gaps isoform P35557-2): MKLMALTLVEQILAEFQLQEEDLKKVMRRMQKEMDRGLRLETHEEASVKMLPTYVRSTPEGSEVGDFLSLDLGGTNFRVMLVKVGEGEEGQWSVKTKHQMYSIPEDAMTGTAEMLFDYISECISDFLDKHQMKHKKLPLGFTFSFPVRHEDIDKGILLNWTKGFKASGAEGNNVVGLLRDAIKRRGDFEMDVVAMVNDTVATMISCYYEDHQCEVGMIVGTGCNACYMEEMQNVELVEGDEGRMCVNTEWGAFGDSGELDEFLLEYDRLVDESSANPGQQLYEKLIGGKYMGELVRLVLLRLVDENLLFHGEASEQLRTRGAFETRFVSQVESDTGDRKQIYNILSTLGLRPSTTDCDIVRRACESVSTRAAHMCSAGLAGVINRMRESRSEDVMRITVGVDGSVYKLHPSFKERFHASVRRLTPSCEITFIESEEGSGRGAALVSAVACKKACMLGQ
Method in brief: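 Activation was scored as ATP consumption, quantified by KinaseGlo luciferase luminescence after a 60 min room-temperature reaction. Reactions contained E. coli-expressed, purified GK, 5 μM ATP, 5 mM glucose, 10 mM MgCl2, 0.01% Brij35 and 2% DMSO at pH 7.2; pKact was fitted non-linearly.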

Row | Structure (SMILES) | EC50
1 | Cc1cc(S(=O)(=O)c2cc(C)n(C(CC3CCCCC3)C(=O)Nc3ncc(Cl)s3)c(=O)c2)c(C)o1 (stereo not drawn) [Example 83, N-(5-chlorothiazol-2-yl)-3-cyclohexyl-2-(4-(2,5-dimethylfuran-3-ylsulfonyl)-6-methyl-2-oxopyridin-1(2H)-yl)propanamide] | < 1.58 µM
2 | O=C(Nc1nc2ccc(O)cc2s1)C(CC1CCOCC1)n1ccc(S(=O)(=O)C2CC2)cc1=O (stereo not drawn) [Example 84, 2-(4-(cyclopropylsulfonyl)-2-oxopyridin-1(2H)-yl)-N-(6-hydroxybenzo[d]thiazol-2-yl)-3-(tetrahydro-2H-pyran-4-yl)propanamide] | > 15.8 µM
3 | COCCC(C)(C)S(=O)(=O)c1ccn(C(CC2CCOCC2)C(=O)Nc2nc3ccc(OC)nc3s2)c(=O)c1 (stereo not drawn) [Example 88, 2-(4-(4-methoxy-2-methylbutan-2-ylsulfonyl)-2-oxopyridin-1(2H)-yl)-N-(5-methoxythiazolo[5,4-b]pyridin-2-yl)-3-(tetrahydro-2H-pyran-4-yl)propanamide] | 1.58 to 15.8 µM
4 | Cc1cc(S(=O)(=O)C2CCCC2)cc(=O)n1C(CC1CCCCC1)C(=O)Nc1ncc(CN2CCOCC2)s1 (stereo not drawn) [Example 89, 3-cyclohexyl-2-(4-(cyclopentylsulfonyl)-6-methyl-2-oxopyridin-1(2H)-yl)-N-(5-(morpholinomethyl)thiazol-2-yl)propanamide] | < 1.58 µM
5 | Cc1cc(-c2ccccc2)cc(=O)n1[C@@H](CC1CCCCC1)C(=O)Nc1nccs1 [Example 90, (S)-3-cyclohexyl-2-(6-methyl-2-oxo-4-phenylpyridin-1(2H)-yl)-N-(thiazol-2-yl)propanamide] | > 15.8 µM
6 | Cc1cc(-c2ccc(Cl)cc2)cc(=O)n1[C@@H](CC1CCCCC1)C(=O)Nc1nccs1 [Example 93, (S)-2-(4-(4-chlorophenyl)-6-methyl-2-oxopyridin-1(2H)-yl)-3-cyclohexyl-N-(thiazol-2-yl)propanamide] | > 15.8 µM
7 | COc1cccc(-c2cc(C)n([C@@H](CC3CCCCC3)C(=O)Nc3nccs3)c(=O)c2)c1 [Example 95, (S)-3-cyclohexyl-2-(4-(3-methoxyphenyl)-6-methyl-2-oxopyridin-1(2H)-yl)-N-(thiazol-2-yl)propanamide] | 1.58 to 15.8 µM
8 | Cc1cc(-c2cccc(C#N)c2)cc(=O)n1[C@@H](CC1CCCCC1)C(=O)Nc1nccs1 [Example 97, (S)-2-(4-(3-cyanophenyl)-6-methyl-2-oxopyridin-1(2H)-yl)-3-cyclohexyl-N-(thiazol-2-yl)propanamide] | > 15.8 µM
9 | Cc1cc(-c2ccoc2)cc(=O)n1[C@@H](CC1CCCCC1)C(=O)Nc1nccs1 [Example 99, (S)-3-cyclohexyl-2-(4-(furan-3-yl)-6-methyl-2-oxopyridin-1(2H)-yl)-N-(thiazol-2-yl)propanamide] | > 15.8 µM
10 | Cc1cc(-c2cccnc2)cc(=O)n1[C@@H](CC1CCCCC1)C(=O)Nc1nccs1 [Example 100, (S)-3-cyclohexyl-2-(6-methyl-2-oxo-4-(pyridin-3-yl)pyridin-1(2H)-yl)-N-(thiazol-2-yl)propanamide] | 1.58 to 15.8 µM
11 | Cc1cc(-c2ccc(S(C)(=O)=O)cc2)cc(=O)n1[C@@H](CC1CCCCC1)C(=O)Nc1nccs1 [Example 101, (S)-3-cyclohexyl-2-(6-methyl-4-(4-(methylsulfonyl)phenyl)-2-oxopyridin-1(2H)-yl)-N-(thiazol-2-yl)propanamide] | > 15.8 µM
12 | CCS(=O)(=O)c1ccc(-c2cc(C)n([C@@H](CC3CCCCC3)C(=O)Nc3nccs3)c(=O)c2)cc1 [Example 102, (S)-3-cyclohexyl-2-(4-(4-(ethylsulfonyl)phenyl)-6-methyl-2-oxopyridin-1(2H)-yl)-N-(thiazol-2-yl)propanamide] | > 15.8 µM
13 | Cc1cc(-c2cc3ccccc3o2)cc(=O)n1[C@@H](CC1CCCCC1)C(=O)Nc1nccs1 [Example 104, (S)-2-(4-(benzofuran-2-yl)-6-methyl-2-oxopyridin-1(2H)-yl)-3-cyclohexyl-N-(thiazol-2-yl)propanamide] | > 15.8 µM
14 | Cc1cc(-c2ccc(F)c(Cl)c2)cc(=O)n1[C@@H](CC1CCCCC1)C(=O)Nc1nccs1 [Example 106, (S)-2-(4-(3-chloro-4-fluorophenyl)-6-methyl-2-oxopyridin-1(2H)-yl)-3-cyclohexyl-N-(thiazol-2-yl)propanamide] | > 15.8 µM
15 | Cc1cc(-c2cccc(F)c2)cc(=O)n1[C@@H](CC1CCCCC1)C(=O)Nc1nccs1 [Example 109, (S)-3-cyclohexyl-2-(4-(3-fluorophenyl)-6-methyl-2-oxopyridin-1(2H)-yl)-N-(thiazol-2-yl)propanamide] | > 15.8 µM

The next lines start with the values.

Row | EC50 | Structure (SMILES)
16 | < 1.58 µM | Cc1cc(S(=O)(=O)C2CC2)c(Cl)c(=O)n1[C@@H](CC1CCCCC1)C(=O)Nc1ncc(Cl)s1 [Example 77, (S)-2-(3-chloro-4-(cyclopropylsulfonyl)-6-methyl-2-oxopyridin-1(2H)-yl)-N-(5-chlorothiazol-2-yl)-3-cyclohexylpropanamide]
17 | 1.58 to 15.8 µM | Cc1cc(S(=O)(=O)C2CC2)c(Cl)c(=O)n1[C@H](CC1CCCCC1)C(=O)Nc1ncc(Cl)s1 [Example 78, (R)-2-(3-chloro-4-(cyclopropylsulfonyl)-6-methyl-2-oxopyridin-1(2H)-yl)-N-(5-chlorothiazol-2-yl)-3-cyclohexylpropanamide]
18 | 1.58 to 15.8 µM | Cc1cc(S(=O)(=O)Cc2cccs2)cc(=O)n1C(CC1CCCCC1)C(=O)Nc1ncc(Cl)s1 (stereo not drawn) [Example 80, N-(5-chlorothiazol-2-yl)-3-cyclohexyl-2-(6-methyl-2-oxo-4-(thiophen-2-ylmethylsulfonyl)pyridin-1(2H)-yl)propanamide]
19 | < 1.58 µM | Cc1cc(S(=O)(=O)Cc2ccco2)cc(=O)n1C(CC1CCCCC1)C(=O)Nc1nccs1 (stereo not drawn) [Example 81, 3-cyclohexyl-2-(4-(furan-2-ylmethylsulfonyl)-6-methyl-2-oxopyridin-1(2H)-yl)-N-(thiazol-2-yl)propanamide]
20 | < 1.58 µM | Cc1cc(S(=O)(=O)C2CCCC2)cc(=O)n1C(CC1CCCCC1)C(=O)Nc1ncc(Cc2ccc(F)cc2)s1 (stereo not drawn) [Example 82, 3-cyclohexyl-2-(4-(cyclopentylsulfonyl)-6-methyl-2-oxopyridin-1(2H)-yl)-N-(5-(4-fluorobenzyl)thiazol-2-yl)propanamide]
21 | < 1.58 µM | Cc1cc(S(=O)(=O)Cc2cccs2)cc(=O)n1[C@@H](CC1CCCCC1)C(=O)Nc1ncc(Cl)s1 [Example 85, (S)-N-(5-chlorothiazol-2-yl)-3-cyclohexyl-2-(6-methyl-2-oxo-4-(thiophen-2-ylmethylsulfonyl)pyridin-1(2H)-yl)propanamide]
22 | > 15.8 µM | Cc1cc(N2CCCC2)cc(=O)n1C(CC1CCCCC1)C(=O)Nc1nccs1 (stereo not drawn) [Example 87, 3-cyclohexyl-2-(6-methyl-2-oxo-4-(pyrrolidin-1-yl)pyridin-1(2H)-yl)-N-(thiazol-2-yl)propanamide]
23 | > 15.8 µM | Cc1cc(-c2ccccc2Cl)cc(=O)n1[C@@H](CC1CCCCC1)C(=O)Nc1nccs1 [Example 91, (S)-2-(4-(2-chlorophenyl)-6-methyl-2-oxopyridin-1(2H)-yl)-3-cyclohexyl-N-(thiazol-2-yl)propanamide]
24 | > 15.8 µM | Cc1cc(-c2cccc(Cl)c2)cc(=O)n1[C@@H](CC1CCCCC1)C(=O)Nc1nccs1 [Example 92, (S)-2-(4-(3-chlorophenyl)-6-methyl-2-oxopyridin-1(2H)-yl)-3-cyclohexyl-N-(thiazol-2-yl)propanamide]
25 | > 15.8 µM | COc1ccc(-c2cc(C)n([C@@H](CC3CCCCC3)C(=O)Nc3nccs3)c(=O)c2)cc1 [Example 96, (S)-3-cyclohexyl-2-(4-(4-methoxyphenyl)-6-methyl-2-oxopyridin-1(2H)-yl)-N-(thiazol-2-yl)propanamide]
26 | 1.58 to 15.8 µM | Cc1cc(-c2ccc(C#N)cc2)cc(=O)n1[C@@H](CC1CCCCC1)C(=O)Nc1nccs1 [Example 98, (S)-2-(4-(4-cyanophenyl)-6-methyl-2-oxopyridin-1(2H)-yl)-3-cyclohexyl-N-(thiazol-2-yl)propanamide]
27 | > 15.8 µM | COc1ccc(Cl)cc1-c1cc(C)n([C@@H](CC2CCCCC2)C(=O)Nc2nccs2)c(=O)c1 [Example 103, (S)-2-(4-(5-chloro-2-methoxyphenyl)-6-methyl-2-oxopyridin-1(2H)-yl)-3-cyclohexyl-N-(thiazol-2-yl)propanamide]
28 | > 15.8 µM | Cc1cc(-c2ccc(F)cc2)cc(=O)n1[C@@H](CC1CCCCC1)C(=O)Nc1nccs1 [Example 105, (S)-3-cyclohexyl-2-(4-(4-fluorophenyl)-6-methyl-2-oxopyridin-1(2H)-yl)-N-(thiazol-2-yl)propanamide]
29 | > 15.8 µM | Cc1cc(-c2csc3ccccc23)cc(=O)n1[C@@H](CC1CCCCC1)C(=O)Nc1nccs1 [Example 107, (S)-2-(4-(benzo[b]thiophen-3-yl)-6-methyl-2-oxopyridin-1(2H)-yl)-3-cyclohexyl-N-(thiazol-2-yl)propanamide]
30 | > 15.8 µM | Cc1cc(-c2cc3ccccc3s2)cc(=O)n1[C@@H](CC1CCCCC1)C(=O)Nc1nccs1 [Example 108, (S)-2-(4-(benzo[b]thiophen-2-yl)-6-methyl-2-oxopyridin-1(2H)-yl)-3-cyclohexyl-N-(thiazol-2-yl)propanamide]
